Entries after “also recorded” stand apart in the source; their conditions may differ.
Columns and labels:
U87-MG glioma cells = assay: Matrigel invasion assay, U87-MG co-cultured with BV2 microglia; assay type: cell-based, human
Description: (§1) BV2 cells were plated onto a 24-well plate at the density of 4×10^4. After 24 h, the invasion assay was performed with tissue culture inserts (6.5 mm Transwell® with 8.0 µm Pore Polycarbonate Membrane Insert, Corning, NY, USA) coated with the Growth Factor Reduced Matrigel™ Matrix (BD Biosciences, San Diego. CA, USA). The Matrigel™ Matrix (50 µL of 1 mg/mL stock solution diluted in fresh DMEM) was dried under sterile conditions (37°C) for 5–6 h. The medium in BV2 cultures was replaced with fresh one 1 h before seeding glioblastoma cells onto the inserts, then LN18 and U87 glioblastoma cells were seeded at 2×10^4/insert on Matrigel-covered membranes in a serum-reduced medium (2% FBS). Untreated glioblastoma cells co-cultured with or without BV2 cells served as positive and negative controls, respectively. Cells were treated with the arginase-1 inhibitors OAT-90, OAT-1617 and OAT-1746 solved in PBS. The cultures were kept in incubator at 37°C with humidified air containing 5% CO2. After 18 h cells were fixed in ice-cold methanol and cell nuclei stained with DAPI (4′,6-Diamidino-2-Phenylindole; 1 µg/mL, Sigma). The membranes from Transwell® inserts were cut out and images were acquired using a fluorescence microscope (Leica DM4000B, 10x lens) from the 5 independent fields (bottom; top; left; right side and the middle). Numbers of invading cells were counted using the ImageJ software (NIH, Bethesda, MD, USA). All experiments were performed three times, in duplicates.

LN18 glioma cells = assay: Matrigel invasion assay, LN18 co-cultured with BV2 microglia; assay type: cell-based, human; settings: 11 µM, co-culture with BV2, 18 h
Description: as §1, with “After 18 h cells were fixed in ice-cold methanol and cell nuclei stained with DAPI (4′,6-Diamidino-2-Phenylindole; 1 µg/mL, Sigma).” left out, “All experiments were performed three times, in duplicates.” left out

[1] = Drug concentration in brain by LC-MS; assay type: in vivo, mouse; settings: GL261-bearing mice, 50 mg/kg oral twice a day, 14 days, 2 h after last dose
Description: Blood plasma, as well as the brain samples (from control and treated animals), were prepared for liquid chromatography coupled with mass spectrometry (LC-MS) by homogenization in 5% trichloroacetic acid (TCA) and the concentration of L-arginine – the substrate of arginase – was determined. In the urea cycle, arginase cleaves arginine to produce urea and ornithine. Ornithine reacts with carbamoyl phosphate to form citrulline. The brain homogenates prepared for arginine measurements, as well as plasma samples were also analyzed by LC-MS to determine the concentration of the drug, which was administered to animals 2 h before the euthanasia.

recombinant human ARG2 = target: T1, recombinant human ARG2 (Homo sapiens, UniProt P78540); assay: Recombinant arginase activity assay, hARG2; assay type: biochemical; settings: 1 h at 37°C, pH 7.4, 10 mM L-arginine, urea detection; read-out: Inhibition of recombinant hARG2: IC50
T1 construct: made in house; host or cells: E. coli
T1 sequence (P78540 23-354): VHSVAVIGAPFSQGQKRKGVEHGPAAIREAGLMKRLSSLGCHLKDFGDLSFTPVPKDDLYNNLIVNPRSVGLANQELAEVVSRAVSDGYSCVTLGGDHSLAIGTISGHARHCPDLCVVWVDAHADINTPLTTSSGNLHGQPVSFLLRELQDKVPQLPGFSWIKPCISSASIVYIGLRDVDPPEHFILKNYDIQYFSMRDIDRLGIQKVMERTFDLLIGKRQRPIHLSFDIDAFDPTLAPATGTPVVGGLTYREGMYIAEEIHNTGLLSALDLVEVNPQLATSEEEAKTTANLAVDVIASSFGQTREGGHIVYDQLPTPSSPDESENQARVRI
Description: The inhibitory activity towards hARG1 and hARG2 enzymes was assessed using recombinant enzymes biosynthesized using a prokaryotic expression system (E. coli) and purified by fast protein liquid chromatography (FPLC). Briefly, recombinant enzymes were incubated with the tested compounds for 1 h at 37°C in the reaction buffer (100 mM sodium phosphate buffer, 130 mM NaCl, 1 mg/mL BSA, pH 7.4) containing substrate (10 mM L-arginine hydrochloride) and cofactor (200 µM MnCl2). The assay is based on the detection of urea, which is generated during the conversion of L-arginine into L-ornithine catalyzed by arginases. To visualize the product, we adding a mixture of reagent A (4 mM oPA, 50 mM boric acid, 1 M sulfuric acid, 0.03% Brij-35) and reagent B (4 mM NED, 50 mM boric acid, 1 M sulfuric acid, 0.03% Brij-35) in equal proportions. The absorbance was measured at 515 nm. The urea production in the absence of any tested compound was considered as maximal enzyme activity. The absorbance in the absence of arginase (background) was considered as zero activity. Two reference compounds OAT-81 (ABH, no. 222638-65-5) and OAT-90 (2-amino-6-borono-2-(2-(3-(2,4-dichlorophenyl)propyloamino)ethyl) hexanoic acid, and two novel inhibitors OAT-1617 and OAT-1746 (the last three synthesized at OncoArendi Therapeutics) were tested. Normalized values were analyzed using GraphPad Prism 7.0 software and the IC50 values were determined.

primary murine microglia = assay: Viability assay, primary microglia; assay type: cell-based, mouse; settings: 24 h, concentrations up to 1000 µM
Description: (§2) Cell viability was assessed using MTT metabolism assay (U87 and BV2 cells) or MTS CellTiter 96® AQueous One Solution Cell Proliferation Assay (Promega) for the primary murine microglia cultures. Cells were cultured either in 96-well plates (U87 at density of 1×10^4) or 24-well plates (BV2 at density of 4×10^4 and primary microglia 8×10^4) with the indicated concentrations of the inhibitor or H2O (vehicle) for 24 h. MTT solution (Sigma Aldrich) was added to each well to a final concentration of 0.5 mg/mL. After 1 h of incubation at 37°C, water-insoluble dark blue formazan crystals were dissolved in DMSO. Optical densities (OD) were measured at 570 and 620 nm using a scanning multiwell spectrophotometer. The MTT assay was performed according to the manufacturer’s protocol. All measurements were carried out on three independent cell passages, in triplicates.

plasma cytokines = assay: Plasma cytokine analysis (Milliplex/MAGPIX); assay type: in vivo, mouse; settings: blood collected 2 h after last administration of OAT-1746
Description: Measurement of pro- and anti-inflammatory cytokines was performed in blood from control and treated animals. Blood was quickly collected to EDTA containing tubes before perfusion and centrifuged (10,000 × g) for 10 min at room temperature. The plasma was collected and stored at -80°C. The levels of cytokines were measured using the Milliplex Kit (Merk-Millipore, Germany) according to the protocol. Cytokine levels were determined using the MAGPIX Multiplexing Instrument (Luminex, TX, USA) with XPonent software and analyzed with Milliplex Analyst 5.1 software. Results were expressed as pg/mL for each cytokine.

BV2 microglial cells = assay: MTT viability assay, BV2; assay type: cell-based, mouse; settings: 24 h, concentrations up to 1000 µM
Description: as §2

CN(C)C[C@@H]1CC[C@@H](CCB(O)O)C[C@]1(N)C(=O)O [OAT-1746]
microglia-induced invasion of U87-MG cells (U87-MG glioma cells; 11 µM, co-culture with BV2, 18 h): effectively reduced glioma invasion; also recorded: reduced microglia-induced invasion of glioma cells more efficiently
concentration dependence of the inhibitory effect on glioma invasion (U87-MG glioma cells; 0.1 and 11 µM, U87-MG with BV2): concentration-dependent
microglia-induced invasion of LN18 cells (LN18 glioma cells): effectively reduced glioma invasion; also recorded: reduced microglia-induced invasion of glioma cells more efficiently
OAT-1746 in the brain (crossing of the BBB) [1]: detected in the brain extracts
IC50 (recombinant human ARG2): 49 nM
viability of primary murine microglia (toxicity) (primary murine microglia): not toxic
plasma levels of CCL2 (plasma cytokines): higher levels
plasma levels of CCL5 (plasma cytokines): reduced
viability of BV2 microglial cells (toxicity) (BV2 microglial cells): not toxic
